In paper PMC3631439 (ACS chemical biology, 2013):
Entries after “also recorded” stand apart in the source; their conditions may differ. Like-named read-outs stand apart in the source and are kept apart here.

Tests used:
[1] = test system: TNFα secretion in LNCaP cells; test: TNFα secretion by LNCaP cells; settings: for inhibition of secretion of TNFα induced by PMA: 30 nM PMA; for secretion of TNFα: 24 h
human GFP-PKCδ = human GFP-PKCδ (Homo sapiens, UniProt Q05655); test: Translocation of human GFP-PKCδ in LNCaP cells; type: cell-based; settings: 1000 nM PMA, 1000 nM bryostatin 1, 3000 nM bryostatin 7
[2] = test system: LNCaP human prostate cancer cells; test: Proliferation of LNCaP cells; settings: for inhibition of proliferation of LNCaP cells: 36 h; for block of inhibition of proliferation by PMA: PMA 30 nM co-administered
PKCβII = PKCβII (Homo sapiens, UniProt P05771); test: Down regulation of PKCβII in U937 cells; type: cell-based
U937 leukemia cells [3] = type: cell-based, human; settings: 60 hours; for cell attachment: U937 cells; for inhibition of attachment induced by PMA: co-administered with PMA
U937 cells = type: cell-based, human; settings: araC 1 μM, 24 h; bryostatin 1 100 nM, bryostatin 7 1000 nM
[4] = test system: phorbol ester responsive genes in LNCaP cells; test: Gene induction in LNCaP cells; type: cell-based, human; settings: 6 hours, 1000 nM
human platelets = settings: cited from earlier work
human YFP-PKCε = target: T1, human YFP-PKCε (Homo sapiens, UniProt Q02156); test: Translocation of human YFP-PKCε in LNCaP cells; type: cell-based
T1 sequence (Q02156 1-737): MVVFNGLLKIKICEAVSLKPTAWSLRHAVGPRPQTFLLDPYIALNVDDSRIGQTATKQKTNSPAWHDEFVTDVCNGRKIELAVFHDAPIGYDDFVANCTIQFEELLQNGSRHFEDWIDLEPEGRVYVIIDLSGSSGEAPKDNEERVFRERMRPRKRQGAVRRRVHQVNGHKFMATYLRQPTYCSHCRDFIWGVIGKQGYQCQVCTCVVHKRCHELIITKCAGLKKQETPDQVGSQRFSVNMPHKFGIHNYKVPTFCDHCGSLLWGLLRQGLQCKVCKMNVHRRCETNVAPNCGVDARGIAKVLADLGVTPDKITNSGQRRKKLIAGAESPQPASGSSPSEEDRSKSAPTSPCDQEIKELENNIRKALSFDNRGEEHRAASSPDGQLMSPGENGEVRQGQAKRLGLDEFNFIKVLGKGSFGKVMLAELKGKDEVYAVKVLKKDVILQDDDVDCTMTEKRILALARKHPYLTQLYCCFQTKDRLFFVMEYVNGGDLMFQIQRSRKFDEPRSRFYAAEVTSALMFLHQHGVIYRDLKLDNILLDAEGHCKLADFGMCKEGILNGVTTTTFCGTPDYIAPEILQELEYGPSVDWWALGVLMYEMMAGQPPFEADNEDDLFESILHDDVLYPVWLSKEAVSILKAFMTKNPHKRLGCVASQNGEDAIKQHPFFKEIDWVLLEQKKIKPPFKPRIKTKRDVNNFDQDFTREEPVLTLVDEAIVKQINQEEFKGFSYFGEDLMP

U937 leukemia cells [5] = type: cell-based, human; settings: 60 hours; for suppression of growth inhibition induced by PMA: co-administered with PMA
[6] = test system: PKC signaling in LNCaP cells; test: PKC and downstream signaling in LNCaP cells; type: cell-based, human; settings: 60 min
PKCδ = PKCδ (Homo sapiens, UniProt Q05655); test: Down regulation of PKCδ in U937 cells; type: cell-based
human GFP-PKCα = human GFP-PKCα (Homo sapiens, UniProt P17252); test: Translocation of human GFP-PKCα in CHO cells; type: cell-based
[7] = test system: PKC isoforms and PKD1 in LNCaP cells; test: Subcellular fractionation of LNCaP cells; type: cell-based, human; settings: 60 min
[8] = test system: human PKC isoforms α, βII, δ, and ε
mouse GFP-PKCδ = mouse GFP-PKCδ (Mus musculus, UniProt P28867); test: Translocation of mouse GFP-PKCδ in LNCaP cells; type: cell-based; settings: 1000 nM PMA, 1000 nM bryostatin 1, 3000 nM bryostatin 7
Mouse PKC α = Mouse PKC α (Mus musculus, UniProt P20444); test: biochemical; type: binding
PKC = settings: cited from earlier work
tumor promotion = settings: cited from earlier work
[9] = test system: TNFα secretion in U937 cells; test: TNF-alpha secretion by U937 cells; type: cell-based, human
PKCε = target: T2, PKCε (Homo sapiens, UniProt Q02156); test: Down regulation of PKCε in U937 cells; type: cell-based; settings: data not shown
T2 sequence (Q02156 1-737): T1 sequence (Q02156 1-737)

[10] = read-out: EC50 for down regulation of PKCβII, 24 hours

Sequence of PKCδ (Q05655 whole entry): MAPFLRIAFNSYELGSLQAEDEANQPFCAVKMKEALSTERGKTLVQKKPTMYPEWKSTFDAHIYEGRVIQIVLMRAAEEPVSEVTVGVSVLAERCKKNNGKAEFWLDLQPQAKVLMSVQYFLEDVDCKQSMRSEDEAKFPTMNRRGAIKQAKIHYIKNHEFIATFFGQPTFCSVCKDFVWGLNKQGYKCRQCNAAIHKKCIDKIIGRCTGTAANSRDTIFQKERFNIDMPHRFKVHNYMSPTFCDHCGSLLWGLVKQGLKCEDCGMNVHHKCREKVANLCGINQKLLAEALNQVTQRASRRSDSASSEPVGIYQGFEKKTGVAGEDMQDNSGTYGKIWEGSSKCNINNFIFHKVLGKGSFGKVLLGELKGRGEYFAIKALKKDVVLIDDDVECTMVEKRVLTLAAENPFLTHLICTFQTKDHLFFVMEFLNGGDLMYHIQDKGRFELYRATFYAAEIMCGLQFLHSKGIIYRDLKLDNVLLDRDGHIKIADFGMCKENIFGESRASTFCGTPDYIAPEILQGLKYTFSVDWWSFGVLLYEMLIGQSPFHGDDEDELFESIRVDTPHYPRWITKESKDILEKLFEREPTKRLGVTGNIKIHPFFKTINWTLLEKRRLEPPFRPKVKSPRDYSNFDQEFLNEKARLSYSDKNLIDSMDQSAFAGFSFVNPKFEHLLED
Sequence of PKCβII (P05771 1-673 isoform P05771-2): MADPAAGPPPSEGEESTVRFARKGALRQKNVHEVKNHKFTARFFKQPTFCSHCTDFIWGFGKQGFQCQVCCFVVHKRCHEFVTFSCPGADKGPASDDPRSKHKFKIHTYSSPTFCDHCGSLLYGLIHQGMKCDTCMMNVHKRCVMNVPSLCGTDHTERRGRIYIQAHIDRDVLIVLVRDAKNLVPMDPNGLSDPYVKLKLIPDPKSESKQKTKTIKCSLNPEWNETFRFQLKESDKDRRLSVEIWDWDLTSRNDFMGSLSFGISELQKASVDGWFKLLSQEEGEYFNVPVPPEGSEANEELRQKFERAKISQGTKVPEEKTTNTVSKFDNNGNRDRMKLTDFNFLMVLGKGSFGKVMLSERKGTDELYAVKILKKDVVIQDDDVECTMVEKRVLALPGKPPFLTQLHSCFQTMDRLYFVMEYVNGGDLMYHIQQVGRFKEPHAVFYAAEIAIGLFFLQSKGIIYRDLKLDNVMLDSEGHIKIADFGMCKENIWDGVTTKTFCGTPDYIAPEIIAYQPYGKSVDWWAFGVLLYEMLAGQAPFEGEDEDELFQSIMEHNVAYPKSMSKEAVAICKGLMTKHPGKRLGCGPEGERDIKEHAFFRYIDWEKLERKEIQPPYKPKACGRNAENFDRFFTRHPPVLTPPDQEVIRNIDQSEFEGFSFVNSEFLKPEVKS
Sequence of mouse GFP-PKCδ (P28867 whole entry): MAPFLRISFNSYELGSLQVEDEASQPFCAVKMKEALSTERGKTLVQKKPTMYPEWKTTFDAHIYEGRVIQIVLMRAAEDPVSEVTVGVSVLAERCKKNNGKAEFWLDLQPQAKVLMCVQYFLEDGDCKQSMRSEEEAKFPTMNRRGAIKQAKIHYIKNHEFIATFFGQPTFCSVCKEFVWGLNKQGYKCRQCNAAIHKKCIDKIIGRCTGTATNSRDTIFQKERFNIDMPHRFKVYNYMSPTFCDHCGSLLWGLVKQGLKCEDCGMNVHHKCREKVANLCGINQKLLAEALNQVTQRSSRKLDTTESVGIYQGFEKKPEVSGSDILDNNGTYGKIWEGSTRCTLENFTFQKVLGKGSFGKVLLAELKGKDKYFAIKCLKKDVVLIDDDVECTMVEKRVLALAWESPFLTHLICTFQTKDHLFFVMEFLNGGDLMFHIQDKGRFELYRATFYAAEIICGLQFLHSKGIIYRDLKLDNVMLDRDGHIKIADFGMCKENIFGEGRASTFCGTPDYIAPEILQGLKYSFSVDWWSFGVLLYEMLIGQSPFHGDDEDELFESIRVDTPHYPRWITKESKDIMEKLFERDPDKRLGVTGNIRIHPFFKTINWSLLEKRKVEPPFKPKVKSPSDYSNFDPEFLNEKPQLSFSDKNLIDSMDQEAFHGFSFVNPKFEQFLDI
Sequence of human GFP-PKCδ (Q05655 whole entry): as the sequence (Q05655 whole entry) above

Row | SMILES | inhibition of secretion of TNFα induced by PMA [1] | secretion of TNFα [1] | translocation pattern of human GFP-PKCδ (human GFP-PKCδ) | inhibition of proliferation of LNCaP cells [2] | block of inhibition of proliferation by PMA [2] | cell attachment (U937 leukemia cells [3]) | inhibition of attachment induced by PMA (U937 leukemia cells [3]) | synergy with araC for loss of mitochondrial membrane potential (U937 cells) | changes in levels of mRNA expression [4] | inhibition of U937 cell proliferation (U937 leukemia cells [5]) | suppression of growth inhibition induced by PMA (U937 leukemia cells [5]) | PKCδ phosphorylation on Y311 [6] | induction of PKCδ phosphorylation at S299 [6] | down regulation of PKCδ (PKCδ; 24 hours) | PKCδ in the nuclear enriched fraction [7] | pPKD1 in the nuclear fraction [7] | translocation pattern of mouse GFP-PKCδ (mouse GFP-PKCδ) | Ki (Mouse PKC α) [nM] | tumor promoting activity (tumor promotion) | down regulation of PKCε (PKCε) | further results
1 | COC(=O)/C=C1/C[C@H]2C[C@]3(O)O[C@H](C[C@@H](O)CC(=O)O[C@@H]([C@@H](C)O)C[C@@H]4C/C(=C\C(=O)OC)[C@H](OC(C)=O)[C@@](O)(O4)C(C)(C)/C=C/[C@@H](C1)O2)C[C@H](OC(C)=O)C3(C)C [Bryostatin 7, bryostatin 7] | inhibits the secretion of TNFα induced by PMA | minimal secretion of TNFα | only caused translocation of the human GFP-PKCδ to nuclear and internal membranes | fails to inhibit proliferation | able to block the inhibition of proliferation by PMA | much reduced level of cell attachment compared to that induced by PMA; also recorded: induced slightly more attachment than did bryostatin 1 | able to inhibit the attachment induced by PMA | able to synergize with araC | generally similar for bryostatin 1 and bryostatin 7 and less than they were for PMA | very limited, biphasic inhibition; also recorded: inhibited proliferation slightly more than did bryostatin 1 | able to suppress the growth inhibition induced by PMA | inability to induce efficient PKCδ phosphorylation on Y311 | closely similar | resembled bryostatin 1 | resembled bryostatin 1 for this response | behaved similarly to bryostatin 1 | only to the nuclear membrane and internal membranes | 0.26 ± 0.06 | – | – | potency for PKCβII down regulation, fold weaker than bryostatin 1 (PKCβII; 24 hours): 3 fold; EC50 (PKCβII; [10]): 0.97 ± 0.08 nM; aggregation of human platelets (human platelets): mimics the activity of the phorbol ester PMA in inducing aggregation of human platelets; translocation pattern of human YFP-PKCε (human YFP-PKCε): no plasma membrane translocation; induction of cFos or EGR1 [6]: reduced induction of cFos or EGR1 at 60 min compared to bryostatin 1; phosphorylation of PKD1 [6]: somewhat less phosphorylation of PKD1 than did bryostatin 1; potency for PKCδ down regulation, fold weaker than bryostatin 1 (PKCδ; 24 hours): approximately 3 fold; EC50 (PKCδ; read-out: EC50 for down regulation of PKCδ, 24 hours): 0.22 ± 0.03 nM; translocation pattern of human GFP-PKCα (human GFP-PKCα): pattern of translocation similar to that of bryostatin 1; selectivity among PKC isoforms [8]: little selectivity among these PKC isoforms; binding affinity towards PKC among bryostatins (PKC): highest binding affinity towards PKC
2 | CC(C)[C@H]1C(=O)N[C@H](CO)Cc2c[nH]c3cccc(c23)N1C [indolactam V] | – | – | – | – | – | – | – | – | – | – | – | – | – | – | – | – | – | – | tumor promoters | – | –
3 | CCCCCCCCCCCCCC(=O)O[C@@H]1[C@@H](C)[C@@]2(O)[C@@H](C=C(CO)C[C@]3(O)C(=O)C(C)=C[C@@H]23)[C@@H]2C(C)(C)[C@]12OC(C)=O [PMA] | – | – | – | inhibits cellular proliferation | – | – | – | – | – | – | – | – | – | little down regulation | increase in PKCδ in the nuclear enriched fraction | substantial accumulation in the nuclear fraction | initial translocation to the plasma membrane | – | tumor promoter | little down regulation | level of down regulation of PKCβII (PKCβII; 24 hours): less down regulation; TNFα secretion [9]: higher level of secretion; translocation pattern of human YFP-PKCε (human YFP-PKCε; LNCaP cells, 1000 nM): rapid clearing of the cytoplasm with translocation of PKCε to the plasma membrane; translocation pattern of human GFP-PKCα (human GFP-PKCα; CHO cells, 1000 nM): slow but clear plasma membrane translocation
4 | CC(=O)O[C@@]12C[C@@H](C)[C@@]3(O)[C@@H](C=C(CO)C[C@]4(O)C(=O)C(C)=C[C@@H]34)[C@@H]1C2(C)C [prostratin] | – | – | – | – | – | – | – | – | – | – | – | – | – | – | – | – | – | – | inhibits tumor promotion | – | –
5 | CCC/C=C/C=C/C(=O)O[C@H]1/C(=C/C(=O)OC)C[C@H]2C[C@H]([C@@H](C)O)OC(=O)C[C@H](O)C[C@@H]3C[C@H](OC(C)=O)C(C)(C)[C@](O)(C[C@@H]4C/C(=C/C(=O)OC)C[C@H](/C=C/C(C)(C)[C@]1(O)O2)O4)O3 [Bryostatin 1, bryostatin 1] | inhibits the secretion of TNFα induced by PMA | minimal secretion of TNFα | some initial plasma membrane translocation | little inhibitory effect | prevents the inhibition by PMA | much reduced level of cell attachment compared to that induced by PMA | able to inhibit the attachment induced by PMA | able to synergize with araC | generally similar for bryostatin 1 and bryostatin 7 and less than they were for PMA | very limited, biphasic inhibition | able to suppress the growth inhibition induced by PMA | inability to induce efficient PKCδ phosphorylation on Y311 | closely similar | down regulation with a biphasic dose response curve | – | – | only to the nuclear membrane and internal membranes | 0.48 ± 0.03 | – | little down regulation | DC50 (PKCβII; [10]): 0.31 ± 0.005 nM; translocation pattern of human YFP-PKCε (human YFP-PKCε; LNCaP cells, 1000 nM): resembled that with PMA, albeit less extensive; translocation pattern of human GFP-PKCα (human GFP-PKCα; CHO cells, 1000 nM): some translocation of the human PKCα to the plasma membrane but with most forming a thick ring around the nucleus
